In one series the test system is L. donovani amastigotes. The experiment in a line: Anti-amastigote assay in infected THP-1 macrophages (Giemsa). The series is classed as cell-based, Leishmania donovani. How it is done: To evaluate the anti-leishmanial effect of the compound T4 and T7 on intracellular L. donovani parasites, macrophage was infected with stationary -phase L. donovani for 6 h. The cells were then washed with saline to remove any non-internalised parasites. To assess the effect of compounds T4 and T7 on intracellular parasites at early stages of infection, macrophages were subsequently treated with T4 and T7 at concentrations of 100, 50, 25, 12.5, or 6.25 μM (refer to Table 3 and Fig. 7) for 6, 24, or 48 hours.
THP-1 cells (5 × 10^5 cells per mL) were cultivated in RPMI-1640 media (Roswell Park Memorial Institute 1640) (Sigma-Aldrich, USA), supplemented with 10% fetal calf serum and maintained at 37 °C with 5% CO2 using phorbol ester as the inducer. These cells were added on circular coverslips (1 × 10^6 cells per mL). Promastigotes of L. donovani were introduced at 1 : 20 ratio. Treatment of the samples was carried out at doses of 100, 50, 25, 12.5, 6.25 and 3.125 μM/72 h. After being taken off, the coverslips were stained with Giemsa. The rate of macrophage infection was then ascertained.

Series [1] relates to L. donovani promastigotes. The experiment in a line: Dose-dependent anti-promastigote activity and determination of IC50 (MTT). The class given is cell-based. Conditions: Leishmania donovani, 72 h, 3 days at 26 °C. How it is done:
MTF was used as a standard antileishmanial drug control. The cell viability was evaluated (by MTT Assay) and the mean percentage viability was calculated as follows: Mean cell number of treated parasites/mean cell number of untreated parasites × 100. The 50 and 90% inhibitory concentration (IC50) i.e., the concentration of drugs that decreased the cell growth by 50 and 90% respectively, was determined by graphical extrapolation after plotting the graph of percentage viability vs. concentration of the drug.[31]
Parasite viability was not affected by DMSO (0.2%, data not shown) used as solvent control.[33]

For series [2], the system named is L. donovani promastigotes. The experiment in a line: Anti-leishmanial screening against L. donovani promastigotes at a single concentration (MTT). The class given is cell-based, Leishmania donovani. Conditions: for Activity against the promastigote parasite (in words) / % Inhibition of L. donovani promastigotes: 100 μM; for inhibition at 100 µM: Leishmania donovani, 72 h; for inhibition at 100 µM / % Inhibition of L. donovani promastigotes: 72 h at 26 °C, MTT.
Experimental: Each candidate was evaluated for its in vitro activity against reference strain (MHOM/IN/83/AG83) of extracellular promastigotes and intracellular amastigotes of L. donovani.
Promastigotes were routinely cultured at 26 °C in medium M199 supplemented with 10% heat inactivated fetal bovine serum (FBS, Gibco Laboratories, Mumbai, India), penicillin 100 (IU mL^−1), streptomycin (100 μg mL^−1). Log phase promastigotes were sub-cultured every 72–96 h, the inoculum being 2 × 10^6 cells per mL.[29]
The triazin hybrids series was evaluated for their antileishmanial ability against L. donovani promastigotes in vitro. Promastigotes of L. donovani (1× 10^6 cells per mL) in M199 medium were incubated at 26 °C for 72 h with each compound at a concentration of 100 μM. Miltefosine (MTF) was used as a reference drug, 0.2% DMSO as solvent control. Parasites with media alone were taken as control. Parasite viability was achieved by MTT assay after 72 h (Sharma et al. 2023).[30]

The subject of series [3] is Human macrophage THP-1 cell line. The experiment in a line: Cytotoxicity assay on THP-1 cell line (MTT). The series is classed as cell-based. Particulars: 3.125–100 μM. How it is done: The cell lines were incubated for 48 h at 37 °C in a CO2 incubator with increasing concentrations of test compounds and viability was ascertained. Each point or bar corresponds to the mean ± SEM of triplicate samples and is representative of one of three independent experiments.
THP-1 human monocytic cells were grown at 37 °C in medium RPMI-1640 (pH 7.4, Sigma-Aldrich, St. Louis, MO, USA) supplemented with 10% heat-inactivated FBS for 48 to 72 h in a humidified atmosphere of 5% CO2 and sub-cultured in fresh RPMI-1640 medium at an average density 2 × 10^5 cells per mL (Sharma et al. 2023).[30]
Human macrophage THP-1 cell line of 0.5 × 10^6 cells per mL seeded in RPMI-1640 medium (Sigma-Aldrich, USA) supplemented with 10% FBS (GIBCO) in presence of 5% CO2 at 37 °C in triplicate in 96 well culture plate. The cells were treated with two-fold serially diluted concentrations (100–3.125 μM) of the candidate molecules for 72 h. The IC50 was calculated using MTT assay (Sharma et al. 2023).[30]

Series [4] deals with promastigote form of L. donovani. Conditions: cited from earlier work.

The values below come from PMC11253633, “Robust leishmanicidal upshot of some new diphenyl triazine-based molecules” (RSC Advances, 2024).

“Also recorded” adds a separate entry of the source. Where only a bound is given, the exact number is not on record here.

Broadly, the IC50 is the concentration needed to halve the response being measured. The low end stands for inhibition by little substance, the high end for a need for much substance. For the compound `C[C@@H]1[C@H](O)[C@@H](C)/C=C/C=C/C=C/C=C/C=C/C=C/C=C/[C@H](O[C@@H]2O[C@H](C)[C@@H](O)[C@H](N)[C@@H]2O)C[C@@H]2O[C@](O)(C[C@@H](O)C[C@@H](O)[C@H](O)CC[C@@H](O)C[C@@H](O)CC(=O)O[C@H]1C)C[C@H](O)[C@H]2C(=O)O` [Ampho B, Amphotericin B, reference compound], the “Percentage reduction of parasites (amastigote)” value in the series with L. donovani amastigotes (6.25 μM) stood at 74%; in the series with L. donovani amastigotes (12.5 μM), 76%; with L. donovani amastigotes (25 μM), 79.44%; in the series with L. donovani amastigotes (50 μM), 82.5%; in the series on L. donovani amastigotes (100 μM), 84.2%. In series [1], this compound registered an IC50 of 1.04 µM.

The term inhibition denotes the percentage by which the read-out fell short of the control. A lower inhibition goes with a response near the control. By melting point is commonly meant the temperature, or range, at which the solid turns liquid. Regarding `Cc1cc(N2CCN(c3cc(Sc4nnc(-c5ccccc5)c(-c5ccccc5)n4)ncn3)CC2)n2ncnc2n1` [T11, 7-(4-(6-((5,6-Diphenyl-1,2,4-triazin-3-yl)thio)pyrimidin-4-yl)piperazin-1-yl)-5-methyl-[1,2,4]triazolo[1,5-a]pyrimidine], the melting point fell in the range of 280 to 285 °C. Also, in series [2], the “Activity against the promastigote parasite (in words)” value (“Activity” for short) is reported as “negligible activity” and the inhibition at 100 µM came out at 32.1%.

With `Fc1ccc(N2CCN(c3cc(Sc4nnc(-c5ccccc5)c(-c5ccccc5)n4)ncn3)CC2)cc1` [T15, 3-((6-(4-(4-Fluorophenyl)piperazin-1-yl)pyrimidin-4-yl)thio)-5,6-diphenyl-1,2,4-triazine], in series [2], the “Activity” value is given as “negligible activity; also recorded: minimal activity” and at 100 µM the inhibition was 28.8%.

As to `CCCCCCCCCCCCCCCCOP(=O)([O-])OCC[N+](C)(C)C` [MTF, miltefosine, reference compound], the “Percentage reduction of parasites (amastigote)” value in the series with L. donovani amastigotes (6.25 μM) is given as 68%; with L. donovani amastigotes (12.5 μM) it was 72%; with L. donovani amastigotes (25 μM) it was 73%; in the series with L. donovani amastigotes (50 μM), 74%; in the series with L. donovani amastigotes (100 μM), 76%. Further, the “Cytotoxicity on THP-1 human macrophages (in words)” value is reported as “some cytotoxicity” in series [3] and “nontoxic” in series [3] (listed as Miltefosine). The IC50 in series [1] was determined as 1.48 µM.

On to `O=C(CSc1nnc(-c2ccccc2)c(-c2ccccc2)n1)Nc1cc(=O)oc2ccccc12` [T5, 2-((5,6-Diphenyl-1,2,4-triazin-3-yl)thio)-N-(2-oxo-2H-chromen-4-yl)acetamide], for which the melting point lay in the range of 200 to 202 °C. In series [2], the “% Inhibition of L. donovani promastigotes” value (shortened to “% Inhibition”) was 67.93%.

Consider “1,2,4-triazino[5,6-b]indol-3-ylthio-1,3,5-triazine [1 (Fig. 2)]”, for which, in series [4], the “fold more selectivity in comparison to pentamidine” value is reported as 20 fold, the “fold more selectivity in comparison to sodium stibogluconate” value is given as 10 fold, the “inhibition against promastigote form of L. donovani” value is reported as “more than 90%” and the “selectivity (S.I.)” value was 56.61.

Consider `COc1ccccc1N1CCN(c2cc(Sc3nnc(-c4ccccc4)c(-c4ccccc4)n3)ncn2)CC1` [T12, 103-((6-(4-(2-methoxyphenyl)piperazin-1-yl)pyrimidin-4-yl)thio)-5,6-diphenyl-1,2,4-triazine], for which, in series [2], the “Activity” value is reported as “negligible activity; also recorded: minimal activity” and the “% Inhibition” value was found to be 21.86%.

Take `c1ccc(-c2nnc(Sc3cc(N4CCCCC4)ncn3)nc2-c2ccccc2)cc1` [T8, 5,6-Diphenyl-3-((6-(piperidin-1-yl)pyrimidin-4-yl)thio)-1,2,4-triazine]: in series [2], the “Activity” value is recorded as “negligible activity” and 100 µM produced 73.7% inhibition.

In turn, `c1ccc(-c2nnc(Sc3cc(N4CCOCC4)ncn3)nc2-c2ccccc2)cc1` [T6, 4-(6-((5,6-Diphenyl-1,2,4-triazin-3-yl)thio)pyrimidin-4-yl)morpholine] had a melting point of 198 to 200 °C. Further, in series [2], the “Activity” value was “negligible activity” and the inhibition at 100 µM was 43.9%.

With `O=[N+]([O-])c1ccc(N2CCN(c3cc(Sc4nnc(-c5ccccc5)c(-c5ccccc5)n4)ncn3)CC2)cc1` [T14, 123-((6-(4-(4-Nitrophenyl)piperazin-1-yl)pyrimidin-4-yl)thio)-5,6-diphenyl-1,2,4-triazine], in series [2], the “Activity” value is on record as “negligible activity; also recorded: minimal activity” and the “% Inhibition” value worked out at 22.76%.

`CCOC(=O)c1cnc2ccc(OC)cc2c1Sc1nnc(-c2ccccc2)c(-c2ccccc2)n1` [T2, Ethyl 4-((5,6-diphenyl-1,2,4-triazin-3-yl)thio)-6-methoxyquinoline-3-carboxylate] showed a melting point of 200 to 202 °C. Besides, in series [2], the “% Inhibition” value is 71.02% and the inhibition at 100 µM was < 90%.

`Clc1ccc2c(Sc3nnc(-c4ccccc4)c(-c4ccccc4)n3)ccnc2c1` [T1, 7-Chloro-4-((5,6-diphenyl-1,2,4-triazin-3-yl)thio)quinoline] showed a melting point of 250 to 252 °C. Further, in series [2], the “% Inhibition” value was 66.78%.

`Clc1ccc2c(N3CCN(c4cc(Sc5nnc(-c6ccccc6)c(-c6ccccc6)n5)ncn4)CC3)ccnc2c1` [T10, 7-Chloro-4-(4-(6-((5,6-diphenyl-1,2,4-triazin-3-yl)thio)pyrimidin-4-yl)piperazin-1-yl) quinoline] gave a melting point of 260 to 262 °C. Further, in series [2], the “Activity” value is “negligible activity” and at 100 µM the inhibition was 22.4%.

In turn, `N#Cc1cccnc1N1CCN(c2cc(Sc3nnc(-c4ccccc4)c(-c4ccccc4)n3)ncn2)CC1` [T9, 2-(4-(6-((5,6-Diphenyl-1,2,4-triazin-3-yl)thio)pyrimidin-4-yl)piperazin-1-yl)nicotinonitrile] gave a melting point of 250 to 252 °C. Moreover, in series [2], the “Activity” value is “negligible activity” and testing at 100 µM gave an inhibition of 29.8%.

`CCN1CCN(c2cc(Sc3nnc(-c4ccccc4)c(-c4ccccc4)n3)ncn2)CC1` [T13, 113-((6-(4-Ethylpiperazin-1-yl)pyrimidin-4-yl)thio)-5,6-diphenyl-1,2,4-triazine]: in series [2], the “Activity” value is “negligible activity; also recorded: minimal activity” and the “% Inhibition” value was found to be 18.54%.

`CCOC(=O)c1cnc2ccc(C)cc2c1Sc1nnc(-c2ccccc2)c(-c2ccccc2)n1` [T3, Ethyl 4-((5,6-diphenyl-1,2,4-triazin-3-yl)thio)-6-methylquinoline-3-carboxylate] gave a melting point of 210 to 212 °C. In series [2], the “% Inhibition” value came out at 83.43% and the inhibition at 100 µM was < 90%.
